Our source for the IC50 and Activity values is ChEMBL document CHEMBL2385041, “The discovery of colchicine-SAHA hybrids as a new class of antitumor agents” (Bioorg Med Chem, 2013).

One assay relates to HCT-116. The assay is described as follows: Cytotoxicity against human HCT116 cells after 72 hrs by MTT assay. Type of assay: functional, cell-based. To be noted: HCT-116, 72 h. A general note: Tetrazolium dyes change colour on reduction, which living cells bring about.
In assay [1] the test system is Bel-7402. In words: Cell cycle arrest in human Bel7402 cells assessed as accumulation at G2/M phase at 10 uM relative to control. Type of assay: functional, cell-based.
Another assay deals with A549. In words: Cytotoxicity against human A549 cells after 72 hrs by MTT assay. Type of assay: functional, cell-based. To be noted: A549, 72 h.
For another assay, the target named is Histone deacetylase 3 (Homo sapiens, UniProt O15379). In words: Inhibition of human recombinant HDAC3 expressed in High5 insect cells using Ac-Lys-Tyr-Lys(-acetyl)-AMC as substrate after 24 hrs by fluorescence assay.
Chain of Histone deacetylase 3 (O15379 whole entry): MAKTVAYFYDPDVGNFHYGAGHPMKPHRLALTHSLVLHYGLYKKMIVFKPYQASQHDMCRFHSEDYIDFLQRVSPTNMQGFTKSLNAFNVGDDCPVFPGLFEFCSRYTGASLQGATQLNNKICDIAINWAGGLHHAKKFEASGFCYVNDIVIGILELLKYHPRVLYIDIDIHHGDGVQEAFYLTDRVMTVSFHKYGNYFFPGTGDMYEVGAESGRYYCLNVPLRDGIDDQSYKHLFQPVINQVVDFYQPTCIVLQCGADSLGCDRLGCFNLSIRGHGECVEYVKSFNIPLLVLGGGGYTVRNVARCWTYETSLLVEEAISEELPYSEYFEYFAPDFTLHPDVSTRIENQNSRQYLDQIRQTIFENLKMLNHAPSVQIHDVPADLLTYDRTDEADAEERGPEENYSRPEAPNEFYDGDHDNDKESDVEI
A further assay concerns the target Histone deacetylase 1 (Homo sapiens, UniProt Q13547). In words: Inhibition of human recombinant HDAC1 expressed in High5 insect cells using Ac-Lys-Tyr-Lys(-acetyl)-AMC as substrate after 24 hrs by fluorescence assay.
For assay [2], the system named is Bel-7402. The assay is described as follows: Cell cycle arrest in human Bel7402 cells assessed as accumulation at G2/M phase at 1 uM relative to control. Type of assay: functional, cell-based.
The subject of the next assay is MCF7. In words: Cytotoxicity against human MCF7 cells after 72 hrs by MTT assay. The class given is functional, cell-based. To be noted: MCF7, 72 h.
The target of assay [3] is T1, Protein deacetylase HDAC6 (Homo sapiens, UniProt Q9UBN7).
T1 sequence (Q9UBN7 whole entry): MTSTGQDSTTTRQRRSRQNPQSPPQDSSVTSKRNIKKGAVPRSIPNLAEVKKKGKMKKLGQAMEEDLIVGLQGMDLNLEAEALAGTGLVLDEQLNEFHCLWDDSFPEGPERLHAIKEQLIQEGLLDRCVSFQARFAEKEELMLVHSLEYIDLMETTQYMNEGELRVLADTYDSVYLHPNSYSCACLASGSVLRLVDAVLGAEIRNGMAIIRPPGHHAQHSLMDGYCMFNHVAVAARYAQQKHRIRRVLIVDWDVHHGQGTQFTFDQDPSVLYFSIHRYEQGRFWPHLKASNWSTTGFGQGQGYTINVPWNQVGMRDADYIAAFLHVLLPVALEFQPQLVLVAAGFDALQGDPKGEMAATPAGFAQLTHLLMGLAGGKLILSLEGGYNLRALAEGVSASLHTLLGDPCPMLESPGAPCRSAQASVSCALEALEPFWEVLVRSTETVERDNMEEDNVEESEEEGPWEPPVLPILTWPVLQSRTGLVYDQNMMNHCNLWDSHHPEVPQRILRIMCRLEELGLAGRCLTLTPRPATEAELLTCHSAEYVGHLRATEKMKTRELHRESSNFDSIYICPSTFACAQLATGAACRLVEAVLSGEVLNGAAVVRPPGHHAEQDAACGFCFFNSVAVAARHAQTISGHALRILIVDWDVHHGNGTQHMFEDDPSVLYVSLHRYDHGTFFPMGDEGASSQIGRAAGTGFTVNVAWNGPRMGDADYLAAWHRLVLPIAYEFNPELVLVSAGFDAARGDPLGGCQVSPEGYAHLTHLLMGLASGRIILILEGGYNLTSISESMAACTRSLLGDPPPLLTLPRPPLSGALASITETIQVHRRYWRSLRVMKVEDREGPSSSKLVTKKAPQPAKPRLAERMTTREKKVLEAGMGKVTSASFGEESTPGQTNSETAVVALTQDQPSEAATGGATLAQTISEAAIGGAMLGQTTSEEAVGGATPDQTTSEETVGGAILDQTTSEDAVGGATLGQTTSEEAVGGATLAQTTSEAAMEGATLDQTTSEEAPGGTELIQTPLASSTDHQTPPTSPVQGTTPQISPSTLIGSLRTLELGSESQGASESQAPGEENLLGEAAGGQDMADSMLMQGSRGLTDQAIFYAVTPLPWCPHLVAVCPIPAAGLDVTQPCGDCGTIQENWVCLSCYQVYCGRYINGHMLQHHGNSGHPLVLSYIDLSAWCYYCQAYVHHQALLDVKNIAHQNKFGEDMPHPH
In words: Inhibition of human recombinant HDAC6 expressed in High5 insect cells using Boc-Lys (-acetyl)-AM) as substrate after 24 hrs by fluorescence assay.

In a further assay the test system is PC-3. The assay is described as follows: Cytotoxicity against human PC3 cells after 72 hrs by MTT assay. The class given is functional, cell-based. To be noted: PC-3, 72 h.
For another assay, the system named is A-431. In words: Cytotoxicity against human A431 cells after 72 hrs by MTT assay. Type of assay: functional, cell-based. To be noted: A-431, 72 h.

Activity calls are given as the source filed them. The rule behind the calls is not given here.

Chain of Histone deacetylase 1 (Q13547 whole entry): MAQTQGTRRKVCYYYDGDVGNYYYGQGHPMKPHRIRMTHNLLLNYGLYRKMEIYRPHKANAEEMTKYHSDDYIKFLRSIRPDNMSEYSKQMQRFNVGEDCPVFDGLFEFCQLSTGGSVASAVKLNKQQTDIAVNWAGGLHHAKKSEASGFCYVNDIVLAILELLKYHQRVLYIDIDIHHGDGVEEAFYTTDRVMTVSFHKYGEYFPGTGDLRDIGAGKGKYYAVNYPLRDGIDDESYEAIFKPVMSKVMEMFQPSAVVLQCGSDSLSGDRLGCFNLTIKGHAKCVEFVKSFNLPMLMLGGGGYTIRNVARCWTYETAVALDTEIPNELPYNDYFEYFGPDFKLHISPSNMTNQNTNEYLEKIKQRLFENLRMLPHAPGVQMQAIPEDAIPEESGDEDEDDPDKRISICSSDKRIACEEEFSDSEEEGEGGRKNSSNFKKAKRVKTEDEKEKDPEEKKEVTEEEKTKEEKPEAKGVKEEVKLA

What is called IC50 is the point on the concentration scale where inhibition reaches its midpoint. With `COc1cc2c(c(OC)c1OC)-c1ccc(OC)c(=O)cc1[C@@H](NC(=O)CCCCC(=O)NO)CC2`, the IC50 in the assay with HCT-116 is 2080 nM; with A549, 4930 nM; at Histone deacetylase 3, 830 nM; at Histone deacetylase 1 it was 720 nM; in the assay on MCF7 it was 928 nM; in assay [3], 440 nM. Also, the figures for the IC50 in the assay on PC-3 and in the assay with A-431 were 5400 nM and 1030 nM, respectively. Further, the outcome in the assay on Bel-7402 [1] and in the assay with Bel-7402 [2] was Active.

For the molecule `COc1cc2c(c(OC)c1OC)-c1ccc(OC)c(=O)cc1[C@@H](NC(=O)CCCCCCC(=O)NO)CC2`, the IC50 in the assay with HCT-116 was 2600 nM; in the assay with A549, 7260 nM; in the assay with MCF7, 1380 nM; in [3], 9830 nM; with PC-3, 3380 nM; in the assay on A-431 it was 3430 nM. Further, the result in the assay on Bel-7402 [1] and in the assay on Bel-7402 [2] was Active.

On to `COc1cc2c(c(OC)c1OC)-c1ccc(OC)c(=O)cc1[C@@H](NC(=O)CCCC(=O)NO)CC2`, for which the IC50 was 2740 nM with HCT-116; 7370 nM with A549; 8360 nM on Histone deacetylase 3; 9580 nM on Histone deacetylase 1; 876 nM in the assay with MCF7; 8240 nM in assay [3]. In addition, the IC50 in the assay on PC-3 came to 2340 nM; with A-431, 1830 nM. In addition, the result with Bel-7402 [1] and with Bel-7402 [2] was Active.

In the case of `COc1cc2c(c(OC)c1OC)-c1ccc(OC)c(=O)cc1[C@@H](NC(C)=O)CC2` [COLCHICINE], the IC50 in the assay with HCT-116 is 37 nM; in the assay with A549, 23 nM; in the assay on MCF7 it was 17 nM; with PC-3 it was 74 nM; in the assay on A-431 it was 19 nM.

`COc1cc2c(c(OC)c1OC)-c1ccc(OC)c(=O)cc1[C@@H](NC(=O)CCC(=O)NO)CC2`: the half-inhibitory concentration (IC50) was determined as 903 nM with HCT-116; 4670 nM in the assay on A549; 1360 nM at Histone deacetylase 3; 1330 nM at Histone deacetylase 1; 825 nM in the assay with MCF7; 3430 nM in [3]. Moreover, the IC50 worked out at 813 nM in the assay with PC-3 and 242 nM in the assay with A-431. The result in the assay on Bel-7402 [1] and in the assay on Bel-7402 [2] was Active.

Turning to `COc1cc2c(c(OC)c1OC)-c1ccc(OC)c(=O)cc1[C@@H](NC(=O)CCCCCC(=O)NO)CC2`, the IC50 in the assay with HCT-116 is 1380 nM; in the assay with A549, 7290 nM; at Histone deacetylase 3, 1030 nM; on Histone deacetylase 1, 1600 nM; in the assay with MCF7, 948 nM; in assay [3] it was 760 nM. The IC50 with PC-3 worked out at 2940 nM; in the assay with A-431 it was 1230 nM. The result with Bel-7402 [1] and in the assay on Bel-7402 [2] was Active.
